Measurements as given in patent US20200345725A1, “Methods and Compositions for Treating Cancer” (Omeros Corporation, priority 2019, published 2020).
“And” between values parts separate entries of the source, which are not always exact repeats. Equal values may be shown once. Marks after values point to notes of the source that are not given here.

How the values were obtained:
GPR174 = GPR174 (Homo sapiens, UniProt Q9BXC1); experiment: CRE-Luc reporter Gs signaling assay with GPR174; format: cell-based; set-up: host or cells: HEK293 or CHO cell lines (ATCC); conditions: pCRE-Luc reporter; for EC50: multiple values = separate experiments
Chain of GPR174 (Q9BXC1 whole entry): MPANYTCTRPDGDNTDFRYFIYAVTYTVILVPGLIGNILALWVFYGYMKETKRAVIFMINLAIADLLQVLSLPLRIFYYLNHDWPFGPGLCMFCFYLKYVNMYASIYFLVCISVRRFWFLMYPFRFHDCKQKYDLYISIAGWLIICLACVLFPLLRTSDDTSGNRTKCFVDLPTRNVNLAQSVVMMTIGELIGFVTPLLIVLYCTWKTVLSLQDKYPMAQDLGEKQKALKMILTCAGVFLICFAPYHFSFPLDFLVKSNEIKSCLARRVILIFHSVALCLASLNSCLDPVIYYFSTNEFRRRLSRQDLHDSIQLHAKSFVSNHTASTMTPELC

human PBMCs = experiment: Th1 cytokines in supernatants of stimulated human PBMC, GPR174 inhibitor with adenosine pathway inhibitors (Examples 15, 18-22); format: cell-based; conditions: for IFN-γ, ratio relative to vehicle control (Veh column) / IL-2, ratio relative to vehicle control (Veh column) / TNF, ratio relative to vehicle control (Veh column): Cmpd 10 1, ZM 0.1, PBF 0.1, SCH 0.2 μM, ADA 0.75 μg/mL; for IFN-γ, ratio relative to vehicle control (MRS) / IL-2, ratio relative to vehicle control (MRS column) / TNF, ratio relative to vehicle control (MRS column): MRS-1754 1 μM added to the agent(s) of the label, label MRS = MRS alone
Protocol: Human PBMCs, obtained from a human volunteer donor, were dispensed at density of 1×10^6 cells/well in a 96-well flat-bottom plate and were stimulated in triplicate with 1 μg/mL anti-CD3 antibody (UCHT1) and 0.1 μg/mL anti-CD28 antibody (CD28.2) in the presence of:
Supernatants from these cells were collected at 24 hours post-stimulation and the levels of IFN-γ were determined by ELISA assay. Statistical analysis was carried out using one-way ANOVA with Tukey's post-hoc multiple comparison's correction.
Human PBMCs, obtained from a human volunteer donor (donor 1), were dispensed in X-vivo15 media (Lonza) supplemented with Glutamax, penicillin and streptomycin, at density of 1×10^6 cells/well in a 96-well flat-bottom plate and were stimulated with 1 μg/mL anti-CD3 antibody (UCHT1) and 0.1 μg/mL anti-CD28 antibody (CD28.2) in the presence of:
Supernatants from these cells were collected at 24 hours post-stimulation and the levels of IFN-γ, IL-2 and TNF were determined by ELISA assays.
Human PBMCs, obtained from two individual human volunteer donors (donor 2 and donor 3), were dispensed at density of 1×10^6 cells/well in a 96-well flat-bottom plate and were stimulated with 1 μg/mL anti-CD3 antibody (UCHT1) and 0.1 μg/mL anti-CD28 antibody (CD28.2) in the presence of:
Human PBMCs, obtained from twelve individual human volunteer donors were dispensed at density of 1×10^6 cells/well in a 96-well flat-bottom plate and were stimulated in triplicate with 1 μg/mL anti-CD3 antibody (UCHT1) and 0.1 μg/mL anti-CD28 antibody (CD28.2) in the presence of:
A total of 44 experiments using PBMC from 12 healthy donors were tested (9 donors for GM-CSF), with each donor tested in 1 to 8 separate experiments, depending on the donor (1 to 4 experiments each for GM-CSF). […] Cytokines were detected in supernatants with the Legendplex (Biolegend) or the MSB (MesoScale) platforms. […] One-way ANOVA with Tukey's post-hoc multiple comparisons correction was performed to identify significant differences (FC, mean fold change; ****, p<0.0001, ***, p<0.001; **, p<0.01; *, p<0.05, ns, not significant).
Human PBMC (1×10^6 cells/well in a 96-well flat-bottom plate) obtained from donor 3 and donor 6 were stimulated with 1 μg/mL anti-CD3 antibody (UCHT1) and 0.1 μg/mL anti-CD28 antibody (CD28.2) in the presence of:
Supernatants from these cells were collected at 24 hours post-stimulation and the levels of IFN-γ, IL-2, and TNF were determined with the MSD platform (MesoScale Discovery).
Human PBMC (1×10^6 cells/well in a 96-well flat-bottom plate) obtained from donor 7 were stimulated with 1 μg/mL […] (UCHT1) and 0.1 μg/mL anti-CD28 antibody (CD28.2) in the presence of:
Supernatants from these cells were collected at 24 hours post-stimulation and the levels of IFN-γ, IL-2, TNF and GM-CSF were determined with the MSD platform (MesoScale Discovery).
Supernatants from these cells were collected at 24 hours post-stimulation and the levels of IFN-γ, IL-2 and TNF were determined with the MSD platform (MesoScale Discovery).

Fold decrease in Gs signaling activity (GPR174) [fold]	EC50 (GPR174)	Molecule	other results
3.3	700 nM and 400 nM	CCC(=O)N1CCN(c2cc(N3CCC(C)CC3)c(F)cc2[N+](=O)[O-])CC1 [compound 8]	
3.9	400 nM and 700 nM	CC1CCN(c2cc(N3CCN(C(=O)c4cccs4)CC3)c([N+](=O)[O-])cc2F)CC1 [compound 12]	
3	1100 nM	Cc1ccc(S(=O)(=O)N2CCN(c3cc(N4CCC(C)CC4)c(F)cc3[N+](=O)[O-])CC2)cc1 [compound 14]	
2.6	1700 nM	Cc1ccc(S(=O)(=O)N2CCN(c3cc(N4CCCCC4)c(F)cc3[N+](=O)[O-])CC2)cc1 [compound 15]	
2.1	800 nM	CC(C)C(=O)N1CCN(c2cc(N3CCCCC3C)c(F)cc2[N+](=O)[O-])CC1 (stereo not shown) [compound 16]	
2.0	3000 nM	CC1CCCCN1c1cc(N2CCN(C(=O)C(C)(C)C)CC2)c([N+](=O)[O-])cc1F (stereo not shown) [compound 17]	
1.9	1000 nM	CCOC(=O)N1CCN(c2cc(N3CCCCC3C)c(F)cc2[N+](=O)[O-])CC1 (stereo not shown) [compound 18]	
2.8	4400 nM	O=C1CCCC2=C1C(c1cccc(O)c1)C1=C(N2)c2ccccc2C1=O (stereo not shown) [compound 24]	
4.2	4600 nM	O=C1CCCC2=C1C(c1ccccc1)C1=C(N2)c2ccccc2C1=O (stereo not shown) [compound 25]	
1.7	3600 nM	COc1cc(C2C3=C(CCCC3=O)NC3=C2C(=O)c2ccccc23)ccc1O (stereo not shown) [compound 26]	
6.2	800 nM and 500 nM	CCc1ccc(C2C3=C(CCCC3=O)NC3=C2C(=O)c2ccccc23)cc1 (stereo not shown) [compound 27]	
1.9	3600 nM	COc1cccc(C2C3=C(CCCC3=O)NC3=C2C(=O)c2ccccc23)c1 (stereo not shown) [compound 28]	
5.3	1200 nM	CC(C)c1ccc(C2C3=C(CCCC3=O)NC3=C2C(=O)c2ccccc23)cc1 (stereo not shown) [compound 29]	
3.9	2500 nM	O=C1CCCC2=C1C(c1ccc(-c3ccccc3)cc1)C1=C(N2)c2ccccc2C1=O (stereo not shown) [compound 32]	
8.4	2800 nM	Cc1nnc(-c2ccc(C3C4=C(CCCC4=O)NC4=C3C(=O)c3ccccc34)cc2)o1 (stereo not shown) [compound 34]	
2.8	4300 nM	O=C1CCCC2=C1C(c1ccc(F)cc1)C1=C(N2)c2ccccc2C1=O (stereo not shown) [compound 35]	
2.8	5400 nM	O=C1CCCC2=C1C(c1cccnc1)C1=C(N2)c2ccccc2C1=O (stereo not shown) [compound 37]	
8.6	2700 nM	O=C1CCCC2=C1C(c1ccc([N+](=O)[O-])cc1)C1=C(N2)c2ccccc2C1=O (stereo not shown) [compound 38]	

Fold decrease in Gs signaling activity (GPR174) [fold]	EC50 (GPR174)	Molecule	other results
7.8	3000 nM	O=C1CCCC2=C1C(c1ccc(Cl)cc1)C1=C(N2)c2ccccc2C1=O (stereo not shown) [compound 39]	
8.8	3300 nM	CS(=O)(=O)c1ccc(C2C3=C(CCCC3=O)NC3=C2C(=O)c2ccccc23)cc1 (stereo not shown) [compound 40]	
13.7	1000 nM	CCCOc1ccc(C2C3=C(CCCC3=O)NC3=C2C(=O)c2ccccc23)cc1 (stereo not shown) [compound 41]	
5.1	5200 nM	O=C1CCCC2=C1C(c1ccc(N3CCCC3=O)cc1)C1=C(N2)c2ccccc2C1=O (stereo not shown) [compound 43]	
4.7	1300 nM	CC(C)(C)Oc1ccc(C2C3=C(CCCC3=O)NC3=C2C(=O)c2ccccc23)cc1 (stereo not shown) [compound 44]	
7.6	1000 nM	O=C1CCCC2=C1C(c1ccc(OC3CCCC3)cc1)C1=C(N2)c2ccccc2C1=O (stereo not shown) [compound 45]	
8.1	1200 nM	O=C1CCCC2=C1C(c1ccc(OC(F)F)cc1)C1=C(N2)c2ccccc2C1=O (stereo not shown) [compound 46]	
7.1	1000 nM	O=C1CCCC2=C1C(c1ccc(Oc3ccccc3)cc1)C1=C(N2)c2ccccc2C1=O (stereo not shown) [compound 47]	
5	1200 nM	O=C1CCCC2=C1C(c1ccc(OC(F)(F)F)cc1)C1=C(N2)c2ccccc2C1=O (stereo not shown) [compound 48]	
14.3	600 nM	CC(C)Oc1ccc(C2C3=C(CCCC3=O)NC3=C2C(=O)c2ccccc23)cc1 (stereo not shown) [compound 49]	
10.1	1200 nM	C=CCOc1ccc(C2C3=C(CCCC3=O)NC3=C2C(=O)c2ccccc23)cc1 (stereo not shown) [compound 50]	
1.7	1600 nM	CCOc1cccc(C2C3=C(CCCC3=O)NC3=C2C(=O)c2ccccc23)c1 (stereo not shown) [compound 51]	
3.1	500 nM	CCCCCCOc1ccc(C2C3=C(CCCC3=O)NC3=C2C(=O)c2ccccc23)cc1 (stereo not shown) [compound 52]	
3.4	1800 nM	O=[N+]([O-])c1cc(F)c(N2CCCCCC2)cc1N1CCN(S(=O)(=O)c2ccccc2)CC1 [compound 53]	
7	2000 nM	CCc1ccc(C2C3=C(CCCC3=O)NC3=C2C(=O)c2ccccc23)cn1 (stereo not shown) [compound 54]	
7	600 nM	CCOc1ccc(C2C3=C(CCCC3=O)NC3=C2C(=O)c2ccccc23)cn1 (stereo not shown) [compound 55]	
		ADA: adenosine deaminase, an enzyme that catabolizes adenosine into inosine (protein, UniProt P00813 2-363, looked up) Adenosine deaminase: AQTPAFDKPKVELHVHLDGSIKPETILYYGRRRGIALPANTAEGLLNVIGMDKPLTLPDFLAKFDYYMPAIAGCREAIKRIAYEFVEMKAKEGVVYVEVRYSPHLLANSKVEPIPWNQAEGDLTPDEVVALVGQGLQEGERDFGVKARSILCCMRHQPNWSPKVVELCKKYQQQTVVAIDLAGDETIPGSSLLPGHVQAYQEAVKSGIHRTVHAGEVGSAEVVKEAVDILKTERLGHGYHTLEDQALYNRLRQENMHFEICPWSSYLTGAWKPDTEHAVIRLKNDQANYSLNTDDPLIFKSTLDTDYQMTKRDMGFTEEEFKRLNINAAKSSFLPEDEKRELLDLLYKAYGMPPSASAGQNL	IFN-γ, MRS/Veh: ratio in the presence vs. the absence of MRS-1754 (human PBMCs; donor 3): 0.7*; IL-2, MRS/Veh: ratio in the presence vs. the absence of MRS-1754 (human PBMCs; donor 3): 0.9; TNF, MRS/Veh: ratio in the presence vs. the absence of MRS-1754 (human PBMCs; donor 3): 0.9; IFN-γ, ratio relative to vehicle control (Veh column) (human PBMCs; donor 3, no MRS): 1.7* fold; IL-2, ratio relative to vehicle control (Veh column) (human PBMCs; donor 3, no MRS): 2.2* fold; TNF, ratio relative to vehicle control (Veh column) (human PBMCs; donor 3, no MRS): 2.2* fold; IFN-γ, ratio relative to vehicle control (MRS) (human PBMCs; donor 3): 1.1 fold; IL-2, ratio relative to vehicle control (MRS column) (human PBMCs; donor 3): 1.9* fold; TNF, ratio relative to vehicle control (MRS column) (human PBMCs; donor 3): 1.9* fold; IFN-γ, MRS/Veh: ratio in the presence vs. the absence of MRS-1754 (human PBMCs; donor 6): 1.3; IL-2, MRS/Veh: ratio in the presence vs. the absence of MRS-1754 (human PBMCs; donor 6): 1.0; TNF, MRS/Veh: ratio in the presence vs. the absence of MRS-1754 (human PBMCs; donor 6): 1.2*; IFN-γ, ratio relative to vehicle control (Veh column) (human PBMCs; donor 6, no MRS): 1.2 fold; IL-2, ratio relative to vehicle control (Veh column) (human PBMCs; donor 6, no MRS): 1.3* fold; TNF, ratio relative to vehicle control (Veh column) (human PBMCs; donor 6, no MRS): 1.2* fold; IFN-γ, ratio relative to vehicle control (MRS) (human PBMCs; donor 6): 1.5* fold; IL-2, ratio relative to vehicle control (MRS column) (human PBMCs; donor 6): 1.3* fold; TNF, ratio relative to vehicle control (MRS column) (human PBMCs; donor 6): 1.4* fold

Molecule	Fold decrease in Gs signaling activity (GPR174) [fold]	EC50 (GPR174)	other results
CCOc1ccc(C2C3=C(CCCC3=O)NC3=C2C(=O)c2ccccc23)cc1OCC (stereo not shown) [compound 30]	2.2	3800 nM	
